Tested on: mouse macrophages (RAW 264.7)
Experiment: LPS‐induced inflammatory responses in mouse macrophages (RAW 264.7), siNC or siLrp8
Format: cell-based
Procedure: To determine whether the suppressive effects of sclerostin on inflammatory responses in macrophages were dependent on ApoER2 in vitro, PMA (100 ng/mL, 48 h)‐induced human differentiated macrophages (THP‐1 cells, Procell Life Science & Technology, CL‐0233) and mouse macrophages (RAW 264.7 cells, ATCC, TIB‐71) were utilized. Human differentiated macrophages or mouse macrophages were divided into 9 groups (n = 3 per group), respectively, including (1) siNC, (2) siNC + LPS, (3) siNC + LPS + SOST 500 nM or 250 nM, (4) siNC + LPS + SOST 1 µM or 500 nM, (5) siNC + LPS + SOST 2 µM or 1 µM, (6) siLrp8 + LPS + SOST 500 nM or 250 nM, (7) siLrp8 + LPS + SOST 1µM or 500 nM, (8) siLrp8 + LPS + SOST 2 µM or 1 µM, (9) siLrp8 + LPS. Cells in groups (6‐9) were transfected with siRNA targeting human/mouse Lrp8 (human siLrp8: Santa Cruz Biotechnology sc‐40097, mouse siLrp8: Santa Cruz Biotechnology sc‐40098), while cells in groups (1‐5) were transfected with empty vector as control (siNC). 24 h later, cells in group (3)/(6), (4)/(7), and (5)/(8) were treated with recombinant human or mouse sclerostin for 3 h at concentration of 500 nM or 250 nM, 1 µM or 500 nM, as well as 2 µM or 1 µM, respectively, while cells in groups (1), (2), and (9) were treated with vehicle. Then, cells in groups (2‐9) were treated with LPS (100 ng/mL or 1 µg/mL) for 18 h. All groups of cell lysates were collected for determining the mRNA expression levels of TNF‐α, MCP‐1, and IL‐10 (human or mouse, respectively) by RT‐PCR.^[ [34] ^] Cell mediums were collected for determining the protein expression/secretion levels of TNF‐α, MCP‐1, and IL‐10 (human or mouse, respectively) by ELISA.^[ [34] ^]
Total RNA was extracted from cells following the protocols of Trizol reagent (Invitrogen, 15 596 026). […] The relative gene expression levels were calculated using the 2^−ΔΔCt method with GAPDH as the reference gene.^[ [40] ^] […]

[1] = RAW 264.7, LPS 1 µg/mL 18 h, recombinant mouse sclerostin 250 nM-1 µM for 3 h, RT‐PCR and ELISA, n = 3

sclerostin: recombinant human/mouse full‐length sclerostin protein
mRNA expression and protein expression/secretion of IL‐10 [1]: promoted | mRNA expression and protein expression/secretion of TNF‐α and MCP‐1 [1]: inhibited | Effects of sclerostin on cytokine/chemokine expression/secretion upon Lrp8 silencing (RAW 264.7 with siLrp8, LPS 1 µg/mL 18 h): not detected
